In US4505924A, “Pharmaceutical preparation for the topical treatment of acne” (Richardson-Vicks Ltd., priority 1982, dated 1985):
Like-named read-outs stand apart in the source and are kept apart here.

Key:
S. epidermidis = test: Zone diffusion test; assay type: cell-based
Protocol: (§1) A zone diffusion test was carried out on the three emulsions. The results were as follows:
(§2) The ranking order for activity against P. acnes was the same as the GMS emulsions.

P. acnes [1] = test: Zone diffusion test; assay type: cell-based
Protocol: as §1, §2

[2] = Zone diffusion test for synergistic activity; assay type: cell-based; conditions: single substance; for zone of inhibition at 10 µg/disc: 10 μg; for zone of inhibition at 100 µg/disc: 100 μg
Protocol: Imazalil and Hexamidine were tested for synergistic activity using a zone diffusion test.

lipase = test: Direct inhibition of P. acnes lipase activity; assay type: biochemical, Propionibacterium acnes
Protocol: (§3) Imazalil and Hexamidine have been studied for anti-enzymic properties against the production and activity of the exoenzymes of Propionibacterium acnes.
There was a 29% reduction of lipase activity in the presence of 10 μg/ml Imazalil and a 68% reduction with 100 μg/ml Imazalil.
(i) A leval of 1 μg/ml Hexamidine reduced lipase activity by 33%.
(i) 100 μg/ml Imazalil and 1 ug/ml Hexamidine reduced lipase activity by 55%.

P. acnes [3] = test: Zone diffusion test using 1% artificial sebum in agar (resistance to inactivation by sebum); assay type: cell-based; conditions: for zone of inhibition at 10 µg/disc / zone of inhibition at 100 µg/disc: Cutibacterium acnes; for zone of inhibition at 10 µg/disc: 10 μg; for zone of inhibition at 100 µg/disc: 100 μg
hyaluronidase = test: Hyaluronidase production by P. acnes in continuous culture (chemostat); assay type: cell-based, Propionibacterium acnes; conditions: growth in the presence of 10 μg/ml Imazalil
Excerpt: (§4) The enzymes are believed to play a role in the pathogenesis of acne. Imazalil is a direct lipase inhibitor and also reduces the production of hyaluronidase and acid phosphatase. Hexamidine likewise reduces the lipase activity.
as §3
(§5) (ii) Imazalil reduced the output of hyaluronidase and acid phosphatase by P.acnes.
(§6) Levels of hyaluronidase fell by 50% after growth in the presence of 10 μg/ml Imazalil.
(§7) (ii) Production of lipase, hyaluronidase and acid phosphatase was markedly affected by a mixture of 10 μg/ml Imazalil and 1 μg/ml Hexamidine. […] Hyaluronidase output was reduced by 50%. Acid phosphatase output was reduced by 80%.

acid phosphatase = test: Acid phosphatase production by P. acnes in continuous culture (chemostat); assay type: cell-based, Propionibacterium acnes; conditions: growth in the presence of 10 μg/ml Imazalil
Excerpt: as §4, §3, §5, §6, §7

Pi. ovale = test: Zone diffusion test; assay type: cell-based; conditions: Pityrosporum ovale, read-out: Zone of Imhibition, Pi. ovale
[4] = 1% artificial sebum in agar, read-out: Zone of Inhibition, Sebum
[5] = control agar, read-out: Zone of Inhibition, Control

Structure (SMILES): N=C(N)c1ccc(OCCCCCCOc2ccc(C(=N)N)cc2)cc1 [Hexamidine, 4,4-(hexamethylene (dihydroxy)-dibenzamidine-di-β-hydroxy ethanesulfonate]
- Zone of Imhibition, S. epidermidis (S. epidermidis; 20 μg): 13 mm
- zone of inhibition at 20 µg/disc (S. epidermidis; Staphylococcus epidermidis, 20 μg, read-out: Zone of Imhibition, S. epidermidis): 10 mm
- Zone of Imhibition, P. acnes (P. acnes [1]; 20 μg): 22.5 mm
- zone of inhibition at 20 µg/disc (P. acnes [1]; Cutibacterium acnes, 20 μg, read-out: Zone of Imhibition, P. acnes): 17 mm
- zone of inhibition at 1 µg/disc ([2]; 1 μg): 3 mm
- zone of inhibition at 10 µg/disc [2]: 10 mm
- zone of inhibition at 100 µg/disc [2]: 29.5 mm
- reduction of lipase activity (lipase; 1 μg/ml Hexamidine): 33%
- inhibitive effect of lipids (sebum) on activity (P. acnes [3]; 1% artificial sebum in agar): totally resistant
- zone of inhibition at 10 µg/disc (P. acnes [3]; [4]): 11 mm
- zone of inhibition at 10 µg/disc (P. acnes [3]; [5]): 9 mm
- zone of inhibition at 100 µg/disc (P. acnes [3]; [4]): 33 mm
- zone of inhibition at 100 µg/disc (P. acnes [3]; [5]): 31.5 mm

Structure (SMILES): C=CCOC(Cn1ccnc1)c1ccc(Cl)cc1Cl (stereo not drawn) [Imazalil, 1-[2-(2,4-dichlorophenyl)-2-(2-propenyloxy)ethyl]-1H-imidazole]
- zone of inhibition at 10 µg/disc (S. epidermidis; Staphylococcus epidermidis, 10 μg, read-out: Zone of Imhibition, S. epidermidis): 3 mm
- zone of inhibition at 80 µg/disc (S. epidermidis; Staphylococcus epidermidis, 80 μg, read-out: Zone of Imhibition, S. epidermidis): 7.5 mm
- zone of inhibition at 10 µg/disc (P. acnes [1]; Cutibacterium acnes, 10 μg, read-out: Zone of Imhibition, P. acnes): 3 mm
- zone of inhibition at 80 µg/disc (P. acnes [1]; Cutibacterium acnes, 80 μg, read-out: Zone of Imhibition, P. acnes): 22 mm
- zone of inhibition at 10 µg/disc [2]: 0 mm
- zone of inhibition at 100 µg/disc [2]: 5.5 mm
- fall of hyaluronidase levels (hyaluronidase): 50%
- reduction of lipase activity (lipase; 10 μg/ml Imazalil): 29%
- reduction of lipase activity (lipase; 100 μg/ml Imazalil): 68%
- Production of acid phosphatase (acid phosphatase): totally inhibited
- inhibitive effect of lipids (sebum) on activity (P. acnes [3]; 1% artificial sebum in agar): partially inhibited
- zone of inhibition at 10 µg/disc (P. acnes [3]; [4]): 0 mm
- zone of inhibition at 10 µg/disc (P. acnes [3]; [5]): 0 mm
- zone of inhibition at 100 µg/disc (P. acnes [3]; [4]): 1.5 mm
- zone of inhibition at 100 µg/disc (P. acnes [3]; [5]): 5 mm
- zone of inhibition at 10 µg/disc (Pi. ovale; 10 μg): 11 mm
- zone of inhibition at 80 µg/disc (Pi. ovale; 80 μg): 28 mm
